Experimental data reported in patent publication US20030203373A1 (priority 2002, published 2003).
“And” between values parts separate entries of the source, which are not always exact repeats. Equal values may be shown once.

Biological target: T1, ACE from pig kidney (Sus scrofa, UniProt F1RRW5)
T1 construct: 1 mU ACE from pig kidney (EC 3.4.15.1 (Sigma)); purchased Sigma; host or cells: pig kidney (tissue-derived enzyme)
T1 sequence (F1RRW5 34-1309): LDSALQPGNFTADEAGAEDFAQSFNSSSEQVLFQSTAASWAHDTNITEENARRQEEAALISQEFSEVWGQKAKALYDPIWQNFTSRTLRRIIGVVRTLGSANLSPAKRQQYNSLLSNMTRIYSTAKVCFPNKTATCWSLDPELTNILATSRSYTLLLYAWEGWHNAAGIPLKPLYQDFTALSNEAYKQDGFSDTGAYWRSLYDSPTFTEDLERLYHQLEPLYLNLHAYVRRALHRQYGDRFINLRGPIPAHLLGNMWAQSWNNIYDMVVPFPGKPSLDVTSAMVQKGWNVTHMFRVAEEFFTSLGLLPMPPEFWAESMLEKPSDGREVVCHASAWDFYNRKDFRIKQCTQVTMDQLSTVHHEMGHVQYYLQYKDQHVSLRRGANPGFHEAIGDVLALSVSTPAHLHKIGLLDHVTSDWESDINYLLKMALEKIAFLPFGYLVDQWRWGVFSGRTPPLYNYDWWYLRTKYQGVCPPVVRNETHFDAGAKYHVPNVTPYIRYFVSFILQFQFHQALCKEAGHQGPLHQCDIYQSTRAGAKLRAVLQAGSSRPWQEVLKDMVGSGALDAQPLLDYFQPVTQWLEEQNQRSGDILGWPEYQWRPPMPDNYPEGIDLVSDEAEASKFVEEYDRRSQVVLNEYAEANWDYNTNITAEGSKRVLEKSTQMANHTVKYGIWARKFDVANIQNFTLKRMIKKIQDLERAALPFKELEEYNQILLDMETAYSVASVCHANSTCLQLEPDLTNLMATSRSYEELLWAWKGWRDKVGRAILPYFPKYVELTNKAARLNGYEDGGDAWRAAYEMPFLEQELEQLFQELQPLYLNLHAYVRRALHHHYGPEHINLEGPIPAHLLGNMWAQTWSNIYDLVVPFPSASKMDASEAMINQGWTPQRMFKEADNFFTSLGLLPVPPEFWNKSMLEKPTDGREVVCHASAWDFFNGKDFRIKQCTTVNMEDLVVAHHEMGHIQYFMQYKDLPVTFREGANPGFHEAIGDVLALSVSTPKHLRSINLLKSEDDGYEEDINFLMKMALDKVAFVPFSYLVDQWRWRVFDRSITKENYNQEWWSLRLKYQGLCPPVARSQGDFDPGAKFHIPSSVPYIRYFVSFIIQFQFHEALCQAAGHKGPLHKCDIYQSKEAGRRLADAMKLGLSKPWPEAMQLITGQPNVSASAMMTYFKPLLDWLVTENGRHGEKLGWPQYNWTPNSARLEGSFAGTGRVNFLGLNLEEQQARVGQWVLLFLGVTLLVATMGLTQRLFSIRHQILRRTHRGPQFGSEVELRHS
Experiment: biochemical
Assay type: biochemical
Procedure, shortened: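 Pig kidney ACE (1 mU) in 25 mM HEPES, 0,3 M NaCl, pH 8,2 was mixed with inhibitor solutions (0,35-200 μM) and started with 2 mM hippuryl-histidyl-leucine solution. After 30 min at 22° C the reaction was stopped with NaOH and the product derivatized with ortho-phthalaldehyde for fluorescence. IC50 was read graphically from % inhibition curves.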

[1] = inhibitor 0.78125 μM, replicates A-D
[2] = inhibitor 1.5625 μM, replicates A-D
[3] = inhibitor 3.125 μM, replicates A-D
[4] = inhibitor 6.25 μM, replicates A-D
[5] = inhibitor 12.5 μM, replicates A-D
[6] = inhibitor 25 μM, replicates A-D
[7] = inhibitor 50 μM, replicates A-D
[8] = inhibitor 100 μM, replicates A-D
[9] = inhibitor 200 μM, replicates A-D

CC(C)C[C@H](NC(=O)[C@H](C)N)C(=O)N[C@@H](CO)C(=O)N1CCC[C@H]1C(=O)N[C@@H](CC(C)C)C(=O)N1CCC[C@H]1C(=O)N[C@@H](CCC(=O)O)C(=O)N[C@H](C(=O)N1CCC[C@H]1C(=O)N1CCC[C@H]1C(=O)O)C(C)C [Peptide S545]
IC50 (ACE from pig kidney, determined graphically, read-out: IC50-value (ACE inhibition)): 2400 nM | fluorescence reading (ACE Inhibitor Assay) (inhibitor 0.39 μM, replicates A-D): 811412 and 841911 and 876502 and 774338 | % inhibition (ACE Inhibitor Assay) (inhibitor 0.39 μM, replicates A-D, 0.39 µM): 12.66% and 9.36% and 5.61% and 16.67% | fluorescence reading (ACE Inhibitor Assay) [1]: 726277 and 720995 and 719037 and 692816 | inhibition at 0.78125 µM [1]: 21.9% | % inhibition (ACE Inhibitor Assay) (inhibitor 0.78125 μM, replicates A-D, 0.78125 µM): 22.45% and 22.66% and 25.5% | fluorescence reading (ACE Inhibitor Assay) [2]: 541353 and 551184 and 577933 and 551569 | inhibition at 1.5625 µM [2]: 41.9% | % inhibition (ACE Inhibitor Assay) (inhibitor 1.5625 μM, replicates A-D, 1.5625 µM): 40.85% and 37.95% and 40.8% | fluorescence reading (ACE Inhibitor Assay) [3]: 405396 and 408086 and 447790 and 392263 | inhibition at 3.125 µM [3]: 56.6% | % inhibition (ACE Inhibitor Assay) (inhibitor 3.125 μM, replicates A-D, 3.125 µM): 56.36% and 52.05% and 58.06% | fluorescence reading (ACE Inhibitor Assay) [4]: 251538 and 279216 and 263340 and 250076 | inhibition at 6.25 µM [4]: 73.3% | % inhibition (ACE Inhibitor Assay) (inhibitor 6.25 μM, replicates A-D, 6.25 µM): 70.3% and 72.02% and 73.46% | fluorescence reading (ACE Inhibitor Assay) [5]: 174037 and 177324 and 175378 and 177772 | inhibition at 12.5 µM [5]: 81.7% | % inhibition (ACE Inhibitor Assay) (inhibitor 12.5 μM, replicates A-D, 12.5 µM): 81.34% and 81.55% and 81.29% | fluorescence reading (ACE Inhibitor Assay) [6]: 108586 and 113328 and 113458 and 104078 | inhibition at 25 µM [6]: 88.8% | % inhibition (ACE Inhibitor Assay) (inhibitor 25 μM, replicates A-D, 25 µM): 88.27% and 88.26% and 89.27% | fluorescence reading (ACE Inhibitor Assay) [7]: 53158 and 63009 and 54447 and 48696 | inhibition at 50 µM [7]: 94.8% | % inhibition (ACE Inhibitor Assay) (inhibitor 50 μM, replicates A-D, 50 µM): 93.72% and 94.65% and 95.27% | fluorescence reading (ACE Inhibitor Assay) [8]: 28035 and 29130 and 30237 and 28568 | inhibition at 100 µM [8]: 97.5% | % inhibition (ACE Inhibitor Assay) (inhibitor 100 μM, replicates A-D, 100 µM): 97.39% and 97.27% and 97.45% | fluorescence reading (ACE Inhibitor Assay) [9]: 17677 and 17238 and 18084 and 18937 | inhibition at 200 µM [9]: 98.6% | % inhibition (ACE Inhibitor Assay) (inhibitor 200 μM, replicates A-D, 200 µM): 98.68% and 98.59% and 98.5% | fold higher dose necessary in the ACE-assay to reach the same effect as with Captopril (relative to Captopril): 1000 fold
